Tested on: MRSA
Experiment: Anti-MRSA activity on dried surface areas swabbed with MRSA broth, surveyed with MRSA selective agar plates
Format: cell-based, Staphylococcus aureus
Settings: surface areas previously swabbed with MRSA broth; treated areas dried 30 minutes; MEC DD Checker Plates; copper citrate solution (22 volts, 2.8 amps, 2 hours) diluted 1 to 10 in water
Protocol: In one protocol, the diluted copper citrate solution was applied to several dried surface areas that had been previously swabbed with an MRSA containing broth solution. The treated areas were allowed to dry over the next 30 minutes. An MRSA selective agar medium was then used to survey the areas for residual MRSA (MEC DD Checker Plates obtained from Denka Seiken, Inc., Japan). For control, similarly contaminated areas were either left untreated or exposed to the original starting 5% citric acid solution.

Compound: O=C(O)CC(O)(CC(=O)O)C(=O)O [5% citric acid solution, citric acid]
- residual MRSA growth on MRSA selective agar medium from treated surface areas: numerous MRSA colonies developed
